Experimental data: US20230183243A1, “HETEROARYL DERIVATIVES AND PHARMACEUTICAL COMPOSITION COMPRISING SAME AS ACTIVE INGREDIENT” (VORONOI INC., priority 2019, published 2023)
Structures can show the parent of a compound that is named as a salt.

Experiments:
MDA-MB-231 cells = assay: Inhibition of proliferation of triple-negative breast cancer cells, CellTiter-Glo; type: cell-based; settings: Homo sapiens, 120 h; MDA-MB-231, cultured for 5 days
Method in brief: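 MDA-MB-231 cells pre-cultured 24 h (5% CO2, 37 °C), then exposed to compound for 5 days at 12 three-fold dilutions, final 10 μM to 0.05 nM. Viability read by CellTiter-Glo luminescence after 10 min at 37 °C; growth inhibition calculated relative to untreated solvent-control cells.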

SHP-77 = assay: Inhibition of proliferation of small cell lung cancer cells, CellTiter-Glo; type: cell-based; settings: Homo sapiens, SHP77, 120 h; SHP-77, cultured for 5 days
Procedure: Specifically, the following test was performed to evaluate the inhibitory activity of the compound according to the present invention against the cell proliferation in the SCLC cells.
To check an inhibitory ability of cell growth in one SCLC cell line, a test was performed as follows. Cells were seeded in 180 μL of a culture broth at a density of 2,000 to 3,000 cells/well in a white clear bottom 96-well plate (Corning) according to the growth ability of each cell, and then cultured for 24 hours under conditions of 5% CO2 and 37° C. Thereafter, the compound was prepared by diluting a 10 mM stock solution three-fold with 100% DMSO at a total of 12 concentrations so that a peak concentration of the compound was in a range of 10 mM to 0.05 μM, and the diluted compound was then diluted in each cell culture medium so that a final concentration of the compound was in a range of 100 μM to 0.5 nM. 20 μL of a diluted solution diluted with a medium was added to the cell solution in which cells were seeded in the 96-well plate on the previous day so that a final concentration of the diluted solution was in a range of 10 μM to 0.05 nM. Each of the cells was cultured for 5 days. To check cell viability, a mixture provided in aCellTiter-Glo® Luminescent Cell Viability Assay Kit (Promega) was added to each of the cultured cell media, and cultured for another 10 minutes under a condition of 37° C. Then, a degree of luminescence (fluorescence) was measured. A degree of inhibition of the cell growth according to the treatment concentration of each of the compounds was calculated based on the fluorescence of the solvent control cells which were not treated with the compound. In this case, the concentration of each of the compounds inhibiting 50% of the cell growth was determined to be a GI50 (nM) value, and calculated using Prism (Version 7.01; GraphPad) software.

TTK = molecular target: T1, TTK (Homo sapiens, UniProt P33981); assay: TTK enzyme activity, ADP-Glo kinase assay; type: biochemical; parameters: purchased SignalChem T20-10G; settings: purified human TTK, ATP 10 μM, 25° C., 2 hours
T1 sequence (P33981 1-857): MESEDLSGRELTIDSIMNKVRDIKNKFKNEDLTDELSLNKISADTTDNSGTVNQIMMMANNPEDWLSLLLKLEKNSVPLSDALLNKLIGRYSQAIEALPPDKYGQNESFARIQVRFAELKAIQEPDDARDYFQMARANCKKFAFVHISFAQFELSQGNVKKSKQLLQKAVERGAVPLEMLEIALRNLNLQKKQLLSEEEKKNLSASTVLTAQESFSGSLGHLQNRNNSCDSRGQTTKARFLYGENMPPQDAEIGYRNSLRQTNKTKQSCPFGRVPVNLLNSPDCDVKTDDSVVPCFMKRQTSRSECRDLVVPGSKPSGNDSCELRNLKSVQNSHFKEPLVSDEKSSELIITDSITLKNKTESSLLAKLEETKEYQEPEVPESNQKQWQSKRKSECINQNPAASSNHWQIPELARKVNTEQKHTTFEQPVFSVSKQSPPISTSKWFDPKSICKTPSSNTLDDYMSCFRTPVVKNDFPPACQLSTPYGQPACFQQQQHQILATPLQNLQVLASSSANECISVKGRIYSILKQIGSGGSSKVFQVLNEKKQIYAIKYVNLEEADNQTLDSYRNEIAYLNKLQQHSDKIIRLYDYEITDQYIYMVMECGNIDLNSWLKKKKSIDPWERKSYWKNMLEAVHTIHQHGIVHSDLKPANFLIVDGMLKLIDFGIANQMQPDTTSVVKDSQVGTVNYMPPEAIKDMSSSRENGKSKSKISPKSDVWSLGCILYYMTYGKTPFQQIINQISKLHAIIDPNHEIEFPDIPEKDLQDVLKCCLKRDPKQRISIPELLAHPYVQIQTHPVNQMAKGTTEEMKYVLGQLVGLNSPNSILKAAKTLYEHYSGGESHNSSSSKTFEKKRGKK
Method in brief: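 ADP-Glo read-out; percent inhibition at each compound concentration was relative to the solvent-only control. The reactions contained 25 ng enzyme, 0.2 μg substrate and 10 μM ATP in 40 mM Tris-HCl pH 7.4 with 20 mM MgCl2, 0.5 mg/mL BSA and 50 μM DTT, and ran 2 h at 25 °C.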

GI50 (MDA-MB-231 cells)	GI50 (SHP-77)	IC50 (TTK)	SMILES
< 100 nM	< 100 nM	< 50 nM	COc1cc(-c2ccnn2C)ccc1Nc1nc(NC2CCCC2)c2c(C#N)c[nH]c2n1 [Example 16, 4-(cyclopentylamino)-2-((2-methoxy-4-(1-methyl-1H-pyrazol-5-yl)phenyl)amino)-7H-pyrrolo[2,3-d] pyrimidine-5-carbonitrile]
100 to 1000 nM	100 to 1000 nM	< 50 nM	N#Cc1c[nH]c2nc(Nc3ccc(N4CCCS4(=O)=O)c(F)c3)nc(NC3CCOCC3)c12 [Example 29]
< 100 nM	< 100 nM	< 50 nM	Cn1nccc1-c1ccc(Nc2nc(NC3CCCC3)c3c(C#N)c[nH]c3n2)c2c1OCCO2 [Example 38, 4-(cyclopentylamino)-2-((8-(1-methyl-1H-pyrazol-5-yl)-2,3-dihydrobenzo[b][1,4]dioxin-5-yl)amino)-7H-pyrrolo[2,3-d] pyrimidine-5-carbonitrile]
< 100 nM	< 100 nM	< 50 nM	Cn1nccc1-c1ccc(Nc2nc(NC3CCOCC3)c3c(C#N)c[nH]c3n2)c2c1OCCO2 [Example 40, 2-((8-(1-methyl-1H-pyrazol-5-yl)-2,3-dihydrobenzo[b][1,4]dioxin-5-yl)amino)-4-((tetrahydro-2H-pyran-4-yl)amino)-7H-pyrrolo[2,3-d] pyrimidine-5-carbonitrile]
< 100 nM	< 100 nM	< 50 nM	COCCNc1nc(Nc2ccc(-c3ccnn3C)c3c2OCCO3)nc2[nH]cc(C#N)c12 [Example 49, 4-((2-methoxyethyl)amino)-2-((8-(1-methyl-1H-pyrazol-5-yl)-2,3-dihydrobenzo[b][1,4]dioxin-5-yl)amino)-7H-pyrrolo[2,3-d] pyrimidine-5-carbonitrile]
< 100 nM	< 100 nM	50 to 200 nM	Cn1nccc1-c1ccc(Nc2nc(NCC3CCCC3)c3c(C#N)c[nH]c3n2)c2c1OCCO2 [Example 50, 4-((cyclopentylmethyl)amino)-2-((8-(1-methyl-1H-pyrazol-5-yl)-2,3-dihydrobenzo[b][1,4]dioxin-5-yl)amino)-7H-pyrrolo[2,3-d] pyrimidine-5-carbonitrile hydrochloride]
100 to 1000 nM	< 100 nM	50 to 200 nM	N#Cc1c[nH]c2nc(Nc3ccc(N4CCCCS4(=O)=O)c(F)c3)nc(NC3CCCC3)c12 [Example 57, 4-(cyclopentylamino)-2-((4-(1,1-dioxido-l,2-thiazinan-2-yl)-3-fluorophenyl)amino)-7H-pyrrolo[2,3-d] pyrimidine-5-carbonitrile]
< 100 nM	< 100 nM	< 50 nM	N#Cc1c[nH]c2nc(Nc3ccc(N4CCCCS4(=O)=O)c(F)c3)nc(NC3CCOCC3)c12 [Example 58, 2-((4-(1,1-dioxido-1,2-thiazinan-2-yl)-3-fluorophenyl)amino)-4-((tetrahydro-2H-pyran-4-yl)amino)-7H-pyrrolo[2,3-d] pyrimidine-5-carbonitrile]
< 100 nM	< 100 nM	200 to 1000 nM	Cn1nccc1-c1ccc(Nc2nc(NC3CCCCCC3)c3c(C#N)c[nH]c3n2)c2c1OCCO2 [Example 59, 4-(cycloheptylamino)-2-((8-(1-methyl-1H-pyrazol-5-yl)-2,3-dihydrobenzo[b][1,4]dioxin-5-yl)amino)-7H-pyrrolo[2,3-d] pyrimidine-5-carbonitrile]
< 100 nM	< 100 nM	50 to 200 nM	Cn1nccc1-c1ccc(Nc2nc(NCC(C)(C)C)c3c(C#N)c[nH]c3n2)c2c1OCCO2 [Example 60, 2-((8-(1-methyl-1H-pyrazol-5-yl)-2,3-dihydrobenzo[b][1,4]dioxin-5-yl)amino)-4-(neopentylamino)-7H-pyrrolo[2,3-d] pyrimidine-5-carbonitrile]
< 100 nM	< 100 nM	50 to 200 nM	Cn1nccc1-c1ccc(Nc2nc(NC3C[C@H]4CC[C@@H]3C4)c3c(C#N)c[nH]c3n2)c2c1OCCO2 (stereo partly drawn) [Example 61, 4-(((1R,4S)-bicyclo[2.2.l]heptan-2-yl)amino)-2-((8-(1-methyl-1H-pyrazol-5-yl)-2,3-dihydrobenzo[b][1,4]dioxin-5-yl)amino)-7H-pyrrolo[2,3-d] pyrimidine-5-carbonitrile]
100 to 1000 nM	100 to 1000 nM	< 50 nM	CC(C)S(=O)(=O)CCNc1nc(Nc2ccc(-c3ccnn3C)c3c2OCCO3)nc2[nH]cc(C#N)c12 [Example 83, 4-((2-(isopropylsulfonyl)ethyl)amino)-2-((8-(1-methyl-1H-pyrazol-5-yl)-2,3-dihydrobenzo[b][1,4]dioxin-5-yl)amino)-7H-pyrrolo[2,3-d] pyrimidine-5-carbonitrile 2,2,2-trifluoroacetate]
> 1000 nM	> 1000 nM	< 50 nM	Cn1nccc1-c1ccc(Nc2nc(NCCS(C)(=O)=O)c3c(C#N)c[nH]c3n2)c2c1OCCO2 [Example 84, 2-((8-(1-methyl-1H-pyrazol-5-yl)-2,3-dihydrobenzo[b][1,4]dioxin-5-yl)amino)-4-((2-(methylsulfonyl)ethyl)amino)-7H-pyrrolo[2,3-d] pyrimidine-5-carbonitrile]
100 to 1000 nM	< 100 nM	< 50 nM	CN(C)S(=O)(=O)CCNc1nc(Nc2ccc(-c3ccnn3C)c3c2OCCO3)nc2[nH]cc(C#N)c12 [Example 85, 2-((5-cyano-2-((8-(1-methyl-1H-pyrazol-5-yl)-2,3-dihydrobenzo[b][1,4]dioxin-5-yl)amino)-7H-pyrrolo[2,3-d]pyrimidin-4-yl)amino)-N,N-dimethylethane-1-sulfonamide]
< 100 nM	< 100 nM	50 to 200 nM	COc1cc(-c2ccnn2C)ccc1Nc1cc(NC2CCCC2)c2c(C#N)c[nH]c2n1 [Example 87, 4-(cyclopentylamino)-6-((2-methoxy-4-(l-methyl-1H-pyrazol-5-yl)phenyl)amino)-1H-pyrrolo[2,3-b] pyridine-3-carbonitrile]
< 100 nM	< 100 nM	50 to 200 nM	Cn1nccc1-c1ccc(Nc2cc(NC3CCCC3)c3c(C#N)c[nH]c3n2)c2c1OCCO2 [Example 88, 4-(cyclopentylamino)-6-((8-(1-methyl-1H-pyrazol-5-yl)-2,3-dihydrobenzo[b][1,4]dioxin-5-yl)amino)-1H-pyrrolo[2,3-b] pyridine-3-carbonitrile]
> 1000 nM	> 1000 nM		Cn1nccc1-c1ccc(Nc2nc(NC3COC3)c3c(C#N)c[nH]c3n2)c2c1OCCO2 [Example 160, 2-((8-(1-methyl-1H-pyrazol-5-yl)-2,3-dihydrobenzo[b][1,4]dioxin-5-yl)amino)-4-(oxetan-3-ylamino)-7H-pyrrolo[2,3-d] pyrimidine-5-carbonitrile]
> 1000 nM	> 1000 nM		COc1cc(-c2ccnn2C)ccc1Nc1nc(NC2COC2)c2c(C#N)c[nH]c2n1 [Example 161, 2-((2-methoxy-4-(1-methyl-1H-pyrazol-5-yl)phenyl)amino)-4-(oxetan-3-ylamino)-7H-pyrrolo[2,3-d] pyrimidine-5-carbonitrile]
